Measured values published in patent publication US8741836B2, “Polypeptides” (Novo Nordisk A/S, priority 2011, dated 2014).
Starred links: 1 amine or outer side, 2 acyl side, 3 side chain; linkers in the order of their positions; H or OH if unused. Positions of bridges follow the written chain, without caps; N, C: chain ends. Non-standard residues stand in square brackets, D forms with d. Residues, ends and D or L forms follow the SMILES beside them. *: point of attachment. C20 diacid = O=C(O)CCCCCCCCCCCCCCCCCCC(=O)*; γGlu = O=C(O)[C@H](CCC(=O)[*:2])N[*:1]; AEEA = NCCOCCOCC(=O)O

Experiment: Assay (III) ThT fibrillation assay for physical stability
Type: physicochemical
Conditions: for ThT pH 4.0 lag time: pH 4.0, ThT fibrillation assay
Text: Assay (III)—ThT Fibrillation Assays for the Assessment of Physical Stability of Protein formulations Low physical stability of a polypeptide may lead to amyloid fibril formation, which is observed as well-ordered, thread-like macromolecular structures in the sample eventually resulting in gel formation. This has traditionally been measured by visual inspection of the sample. However, that kind of measurement is very subjective and depending on the observer. Therefore, the application of a small molecule indicator probe is much more advantageous. Thioflavin T (ThT) is such a probe and has a distinct fluorescence signature when binding to fibrils [Naiki et al. (1989) Anal. Biochem. 177, 244-249; LeVine (1999) Methods. Enzymol. […], 274-284]. The time course for fibril formation can be described by a sigmoidal curve with the following expression [Nielsen et al. (2001) Biochemistry 40, 6036-6046]: [formula] Here, F is the ThT fluorescence at the time t. The constant t0 is the time needed to reach 50% of maximum fluorescence. […] Few of those intermediates nucleate to form a template onto which further intermediates may assembly and the fibrillation proceeds. The lag-time corresponds to the interval in which the critical mass of nucleus is built up and the apparent rate constant is the rate with which the fibril itself is formed. Sample Preparation Samples were prepared freshly before each assay. Each sample composition is described in each example. The pH of the sample was adjusted to the desired value using appropriate amounts of concentrated NaOH and HClO4 or HCl. Thioflavin T was added to the samples from a stock solution in H2O to a final concentration of 1 μM. Sample aliquots of 200 μl were placed in a 96 well microtiter plate (Packard OptiPlate™-96, white polystyrene). Usually, four or eight replica of each sample (corresponding to one test condition) were placed in one column of wells. The plate was sealed with Scotch Pad (Qiagen). Incubation and Fluorescence Measurement Incubation at given temperature, shaking and measurement of the ThT fluorescence emission were done in a Fluoroskan Ascent FL fluorescence platereader or Varioskan platereader (Thermo Labsystems). The temperature was adjusted to 37° C. The orbital shaking was adjusted to 960 rpm with an amplitude of 1 mm in all the presented data. Fluorescence measurement was done using excitation through a 444 nm filter and measurement of emission through a 485 nm filter. Each run was initiated by incubating the plate at the assay temperature for 10 min. The plate was measured every 20 minutes for a desired period of time. Between each measurement, the plate was shaken and heated as described. Data Handling The measurement points were saved in Microsoft Excel format for further processing and curve drawing and fitting was performed using GraphPad Prism. The background emission from ThT in the absence of fibrils was negligible. The data points are typically a mean of four or eight samples and shown with standard deviation error bars. Only data obtained in the same experiment (i.e. samples on the same plate) are presented in the same graph ensuring a relative measure of fibrillation between experiments. The data set may be fitted to Eq. (1). However, since full sigmodial curves in this case are not always achieved during the measurement time, the degree of fibrillation is expressed as ThT fluorescence tabulated as the mean of the samples and shown with the standard deviation at various time points. Measurement of Initial and Final Concentrations The polypeptide concentration in each of the tested formulations were measured both before application in the ThT fibrillation assay (“Initial”) and after completion of the ThT fibrillation (“After ThT assay”). Concentrations were determined by reverse HPLC methods using a pramlintide standard as a reference. Before measurement after completion 150 μl was collected from each of the replica and transferred to an Eppendorf tube. […]

| Structure (SMILES) | ThT pH 4.0 lag time [h] | ThT pH 4.0 lag time (physical stability in fibrillogenesis assay) [h] |
| --- | --- | --- |
| CC[C@H](C)[C@H](NC(=O)[C@@H]1CCCN1C(=O)CNC(=O)[C@H](Cc1ccccc1)NC(=O)[C@H](CC(N)=O)NC(=O)[C@H](CC(N)=O)NC(=O)[C@H](CO)NC(=O)[C@H](CO)NC(=O)[C@H](Cc1c[nH]cn1)NC(=O)[C@H](Cc1c[nH]cn1)NC(=O)[C@H](CC(C)C)NC(=O)[C@H](Cc1ccccc1)NC(=O)[C@H](CCC(=O)O)NC(=O)[C@H](C)NC(=O)[C@H](CC(C)C)NC(=O)[C@H](CCCNC(=N)N)NC(=O)[C@H](CCC(N)=O)NC(=O)[C@@H](NC(=O)[C@H](C)NC(=O)[C@@H]1CSSC[C@H](NC(=O)CNC(=O)CC[C@H](NC(=O)CCCCCCCCCCCCCCCCCCC(=O)O)C(=O)O)C(=O)N[C@@H](CC(N)=O)C(=O)N[C@@H]([C@@H](C)O)C(=O)N[C@@H](C)C(=O)N[C@@H]([C@@H](C)O)C(=O)N1)[C@@H](C)O)C(=O)N[C@@H](CC(C)C)C(=O)N1CCC[C@H]1C(=O)N1CCC[C@H]1C(=O)N[C@H](C(=O)N[C@@H](CC(N)=O)C(=O)N[C@H](C(=O)NCC(=O)N[C@@H](CO)C(=O)N[C@@H](CC(N)=O)C(=O)N[C@H](C(=O)N1CCC[C@H]1C(N)=O)[C@@H](C)O)C(C)C)[C@@H](C)O [Example 91, N-alpha-[(S)-4-Carboxy-4-(19-carboxynonadecanoylamino)butyryl]-[Gly1,Glu14,His17,Pro37]-pramlintide] ({C20 diacid-γGlu}-GCNTATCATQRLAEFLHHSSNNFGPILPPTNVGSNTP-NH2; disulfide 2-7 (inferred)) | 29 | – |
| CC[C@H](C)[C@H](NC(=O)[C@@H]1CCCN1C(=O)CNC(=O)[C@H](Cc1ccccc1)NC(=O)[C@H](CC(N)=O)NC(=O)[C@H](C)NC(=O)[C@H](CO)NC(=O)[C@H](CO)NC(=O)[C@H](CCCNC(=N)N)NC(=O)[C@H](Cc1cnc[nH]1)NC(=O)[C@H](CC(C)C)NC(=O)[C@H](Cc1ccccc1)NC(=O)[C@H](CCC(=O)O)NC(=O)[C@H](C)NC(=O)[C@H](CC(C)C)NC(=O)[C@H](CCCNC(=N)N)NC(=O)[C@H](CCC(N)=O)NC(=O)[C@@H](NC(=O)[C@H](C)NC(=O)[C@@H]1CSSC[C@H](NC(=O)[C@H](CCCCN)NC(=O)[C@@H](CCCNC(=N)N)NC(=O)[C@@H](CCCNC(=N)N)NC(=O)COCCOCCNC(=O)COCCOCCNC(=O)CC[C@H](NC(=O)CCCCCCCCCCCCCCCCCCC(=O)O)C(=O)O)C(=O)N[C@@H](CC(N)=O)C(=O)N[C@@H]([C@@H](C)O)C(=O)N[C@@H](C)C(=O)N[C@@H]([C@@H](C)O)C(=O)N1)[C@@H](C)O)C(=O)N[C@@H](CC(C)C)C(=O)N1CCC[C@H]1C(=O)N1CCC[C@H]1C(=O)N[C@H](C(=O)N[C@@H](CC(N)=O)C(=O)N[C@H](C(=O)NCC(=O)N[C@@H](CO)C(=O)N[C@@H](CO)C(=O)N[C@H](C(=O)N[C@@H](Cc1ccc(O)cc1)C(N)=O)[C@@H](C)O)C(C)C)[C@@H](C)O [Example 38, N-alpha-[2-(2-{2-[2-(2-{2-[(S)-4-Carboxy-4-(19-carboxyheptadecanoylamino)butyrylamino]ethoxy}ethoxy)acetylamino]ethoxy}ethoxy)acetyl]-D-Arg-D-Arg-[Glu14,His17,Arg18,Ala21,Ser35]-pramlintide] ({C20 diacid-γGlu-AEEA-AEEA}-[dR][dR]KCNTATCATQRLAEFLHRSSANFGPILPPTNVGSSTY-NH2; disulfide 4-9) | – | >45 |
| CC[C@H](C)[C@H](NC(=O)[C@@H]1CCCN1C(=O)CNC(=O)[C@H](Cc1ccccc1)NC(=O)[C@H](CC(N)=O)NC(=O)[C@H](CC(N)=O)NC(=O)[C@H](CO)NC(=O)[C@H](CO)NC(=O)[C@H](Cc1c[nH]cn1)NC(=O)[C@H](Cc1c[nH]cn1)NC(=O)[C@H](CC(C)C)NC(=O)[C@H](Cc1ccccc1)NC(=O)[C@H](CCC(=O)O)NC(=O)[C@H](C)NC(=O)[C@H](CC(C)C)NC(=O)[C@H](CCCNC(=N)N)NC(=O)[C@H](CCC(N)=O)NC(=O)[C@@H](NC(=O)[C@H](C)NC(=O)[C@@H]1CSSC[C@H](NC(=O)[C@H](CCCCN)NC(=O)CC[C@H](NC(=O)CCCCCCCCCCCCCCCCCCC(=O)O)C(=O)O)C(=O)N[C@@H](CC(N)=O)C(=O)N[C@@H]([C@@H](C)O)C(=O)N[C@@H](C)C(=O)N[C@@H]([C@@H](C)O)C(=O)N1)[C@@H](C)O)C(=O)N[C@@H](CC(C)C)C(=O)N1CCC[C@H]1C(=O)N1CCC[C@H]1C(=O)N[C@H](C(=O)N[C@@H](CC(N)=O)C(=O)N[C@H](C(=O)NCC(=O)N[C@@H](CO)C(=O)N[C@@H](CC(N)=O)C(=O)N[C@@H](Cc1c[nH]cn1)C(=O)N[C@@H](Cc1ccc(O)cc1)C(N)=O)C(C)C)[C@@H](C)O [Example 114, N-alpha-[(S)-4-Carboxy-4-(19-carboxynonadecanoylamino)butyryl]-[Glu14,His17,His36]-pramlintide] ({C20 diacid-γGlu}-KCNTATCATQRLAEFLHHSSNNFGPILPPTNVGSNHY-NH2; disulfide 2-7 (inferred)) | >45 | – |
| CC[C@H](C)[C@H](NC(=O)[C@@H]1CCCN1C(=O)CNC(=O)[C@H](Cc1ccccc1)NC(=O)[C@H](CC(N)=O)NC(=O)[C@H](CC(N)=O)NC(=O)[C@H](CO)NC(=O)[C@H](CO)NC(=O)[C@H](Cc1c[nH]cn1)NC(=O)[C@H](CCCNC(=N)N)NC(=O)[C@H](CC(C)C)NC(=O)[C@H](Cc1ccccc1)NC(=O)[C@H](CCC(=O)O)NC(=O)[C@H](C)NC(=O)[C@H](CC(C)C)NC(=O)[C@H](CCCNC(=N)N)NC(=O)[C@H](CCC(N)=O)NC(=O)[C@@H](NC(=O)[C@H](C)NC(=O)[C@@H]1CSSC[C@H](NC(=O)CNC(=O)CC[C@H](NC(=O)CCCCCCCCCCCCCCCCCCC(=O)O)C(=O)O)C(=O)N[C@@H](CC(N)=O)C(=O)N[C@@H]([C@@H](C)O)C(=O)N[C@@H](C)C(=O)N[C@@H]([C@@H](C)O)C(=O)N1)[C@@H](C)O)C(=O)N[C@@H](CC(C)C)C(=O)N1CCC[C@H]1C(=O)N1CCC[C@H]1C(=O)N[C@H](C(=O)N[C@@H](CC(N)=O)C(=O)N[C@H](C(=O)NCC(=O)N[C@@H](CO)C(=O)N[C@@H](CC(N)=O)C(=O)N[C@H](C(=O)N1CCC[C@H]1C(N)=O)[C@@H](C)O)C(C)C)[C@@H](C)O [Example 88, N-alpha-[(S)-4-Carboxy-4-(19-carboxynonadecanoylamino)butyryl]-[Gly1,Glu14,Arg17,Pro37]-pramlintide] ({C20 diacid-γGlu}-GCNTATCATQRLAEFLRHSSNNFGPILPPTNVGSNTP-NH2; disulfide 2-7) | >45 | >45 |
| CC[C@H](C)[C@H](NC(=O)[C@@H]1CCCN1C(=O)CNC(=O)[C@H](Cc1ccccc1)NC(=O)[C@H](CC(N)=O)NC(=O)[C@H](CO)NC(=O)[C@H](CO)NC(=O)[C@H](CO)NC(=O)[C@H](Cc1c[nH]cn1)NC(=O)[C@H](CCCNC(=N)N)NC(=O)[C@H](CC(C)C)NC(=O)[C@H](Cc1ccccc1)NC(=O)[C@H](CCC(=O)O)NC(=O)[C@H](C)NC(=O)[C@H](CC(C)C)NC(=O)[C@H](CCCNC(=N)N)NC(=O)[C@H](CCC(N)=O)NC(=O)[C@@H](NC(=O)[C@H](C)NC(=O)[C@@H]1CSSC[C@H](NC(=O)[C@H](Cc2c[nH]cn2)NC(=O)CC[C@H](NC(=O)CCCCCCCCCCCCCCCCCCC(=O)O)C(=O)O)C(=O)N[C@@H](CC(N)=O)C(=O)N[C@@H]([C@@H](C)O)C(=O)N[C@@H](C)C(=O)N[C@@H]([C@@H](C)O)C(=O)N1)[C@@H](C)O)C(=O)N[C@@H](CC(C)C)C(=O)N[C@@H](CO)C(=O)N[C@@H](CO)C(=O)N[C@H](C(=O)N[C@@H](CC(N)=O)C(=O)N[C@H](C(=O)NCC(=O)N[C@@H](CO)C(=O)N[C@@H](Cc1c[nH]cn1)C(=O)N[C@H](C(=O)N[C@@H](Cc1ccc(O)cc1)C(N)=O)[C@@H](C)O)C(C)C)[C@@H](C)O [Example 111, N-alpha-[(S)-4-Carboxy-4-(19-carboxynonadecanoylamino)butyryl]-[His1,Glu14,Arg17,Ser21,Ser28,Ser29,His35]-pramlintide] ({C20 diacid-γGlu}-HCNTATCATQRLAEFLRHSSSNFGPILSSTNVGSHTY-NH2; disulfide 2-7) | >45 | – |
